Assays:
Type in all cases: in vivo
[1] = test system: Amaranthus retoflexus (AMARE); assay: Pre-emergence herbicidal glasshouse test on Amaranthus retoflexus; conditions: pre-emergence; 1000 g/h; evaluated after 13 days
Experimental: (§1) Seeds of a variety of test species are sown in standard soil in pots (Alopecurus myosuroides (ALOMY), Setaria faberi (SETFA), Echinochloa crus-galli (ECHCG), Solanum nigrum (SOLNI), Amaranthus retoflexus (AMARE), Ipomoea hederacea (IPOHE)). After cultivation for one day (pre-emergence) or after 8 days cultivation (post-emergence) under controlled conditions in a glasshouse (at 24/16° C., day/night; 14 hours light; 65% humidity), the plants are sprayed with an aqueous spray solution derived from the formulation of the technical active ingredient in acetone/water (50:50) solution containing 0.5% Tween 20 (polyoxyethelyene sorbitan monolaurate, CAS RN 9005-64-5). Compounds are applied at 1000 g/h. The test plants are then grown in a glasshouse under controlled conditions in a glasshouse (at 24/16° C., day/night; 14 hours light; 65% humidity) and watered twice daily. After 13 days for pre and post-emergence, the test is evaluated for the percentage herbicidal damage caused to the plant. The biological activities are shown in the following table on a five point scale (5=80-100% damage; 4=60-79% damage; 3=40-59% damage; 2=20-39% damage; 1=0-19% damage).

Setaria faberi (SETFA) [2] = assay: Post-emergence herbicidal glasshouse test on Setaria faberi; conditions: post-emergence; 1000 g/h; evaluated after 13 days
Experimental: as §1

Solanum nigrum (SOLNI) [3] = assay: Post-emergence herbicidal glasshouse test on Solanum nigrum; conditions: post-emergence; 1000 g/h; evaluated after 13 days
Experimental: as §1

Solanum nigrum (SOLNI) [4] = assay: Pre-emergence herbicidal glasshouse test on Solanum nigrum; conditions: pre-emergence; 1000 g/h; evaluated after 13 days
Experimental: as §1

[5] = test system: Ipomoea hederacea (IPOHE); assay: Pre-emergence herbicidal glasshouse test on Ipomoea hederacea; conditions: pre-emergence; 1000 g/h; evaluated after 13 days
Experimental: as §1

[6] = test system: Echinochloa crus-galli (ECHCG); assay: Post-emergence herbicidal glasshouse test on Echinochloa crus-galli; conditions: post-emergence; 1000 g/h; evaluated after 13 days
Experimental: as §1

[7] = test system: Alopecurus myosuroides (ALOMY); assay: Pre-emergence herbicidal glasshouse test on Alopecurus myosuroides; conditions: pre-emergence; 1000 g/h; evaluated after 13 days
Experimental: as §1

[8] = test system: Alopecurus myosuroides (ALOMY); assay: Post-emergence herbicidal glasshouse test on Alopecurus myosuroides; conditions: post-emergence; 1000 g/h; evaluated after 13 days
Experimental: as §1

[9] = test system: Echinochloa crus-galli (ECHCG); assay: Pre-emergence herbicidal glasshouse test on Echinochloa crus-galli; conditions: pre-emergence; 1000 g/h; evaluated after 13 days
Experimental: as §1

[10] = test system: Amaranthus retoflexus (AMARE); assay: Post-emergence herbicidal glasshouse test on Amaranthus retoflexus; conditions: post-emergence; 1000 g/h; evaluated after 13 days
Experimental: as §1

Setaria faberi (SETFA) [11] = assay: Pre-emergence herbicidal glasshouse test on Setaria faberi; conditions: pre-emergence; 1000 g/h; evaluated after 13 days
Experimental: as §1

[12] = test system: Ipomoea hederacea (IPOHE); assay: Post-emergence herbicidal glasshouse test on Ipomoea hederacea; conditions: post-emergence; 1000 g/h; evaluated after 13 days
Experimental: as §1

Compound | PRE Application AMARE herbicidal damage (five point scale) [1] | POST Application SETFA herbicidal damage (five point scale) (Setaria faberi (SETFA) [2]) | POST Application SOLNI herbicidal damage (five point scale) (Solanum nigrum (SOLNI) [3]) | PRE Application SOLNI herbicidal damage (five point scale) (Solanum nigrum (SOLNI) [4]) | PRE Application IPOHE herbicidal damage (five point scale) [5] | POST Application ECHCG herbicidal damage (five point scale) [6] | PRE Application ALOMY herbicidal damage (five point scale) [7] | POST Application ALOMY herbicidal damage (five point scale) [8] | PRE Application ECHCG herbicidal damage (five point scale) [9] | POST Application AMARE herbicidal damage (five point scale) [10] | PRE Application SETFA herbicidal damage (five point scale) (Setaria faberi (SETFA) [11]) | POST Application IPOHE herbicidal damage (five point scale) [12]
CC(C)N(C)S(=O)(=O)c1nc(C(F)(F)F)ccc1-c1cnn(C)c(=O)c1O [Compound 4.017] | 5 (5=80-100% damage) | 5 (5=80-100% damage) | 5 (5=80-100% damage) | 5 (5=80-100% damage) | 5 (5=80-100% damage) | 5 (5=80-100% damage) | 4 (4=60-79% damage) | 5 (5=80-100% damage) | 5 (5=80-100% damage) | 5 (5=80-100% damage) | 4 (4=60-79% damage) | 5 (5=80-100% damage)
O=c1c(O)c(-c2ccc(C(F)(F)F)cc2C(F)(F)F)cnn1C(F)F [Compound 1.006] | 5 (5=80-100% damage) | 1 (1=0-19% damage) | 5 (5=80-100% damage) | 3 (3=40-59% damage) | 3 (3=40-59% damage) | 1 (1=0-19% damage) | 2 (2=20-39% damage) | 1 (1=0-19% damage) | 2 (2=20-39% damage) | 5 (5=80-100% damage) | 1 (1=0-19% damage) | 5 (5=80-100% damage)
Cn1ncc(-c2ccc(S(C)(=O)=O)cc2Cl)c(O)c1=O [Compound 1.105] | 5 (5=80-100% damage) | 1 (1=0-19% damage) | 5 (5=80-100% damage) | 4 (4=60-79% damage) | 1 (1=0-19% damage) | 5 (5=80-100% damage) | 2 (2=20-39% damage) | 2 (2=20-39% damage) | 5 (5=80-100% damage) | 5 (5=80-100% damage) | 2 (2=20-39% damage) | 5 (5=80-100% damage)
Cn1ncc(-c2cccn(CC3CC3)c2=O)c(O)c1=O [Compound 9.006] | 1 (1=0-19% damage) | 2 (2=20-39% damage) | 3 (3=40-59% damage) | 1 (1=0-19% damage) | 1 (1=0-19% damage) | 1 (1=0-19% damage) | 1 (1=0-19% damage) | 2 (2=20-39% damage) | 1 (1=0-19% damage) | 3 (3=40-59% damage) | 1 (1=0-19% damage) | 2 (2=20-39% damage)
Cn1ncc(-c2ccc(C(F)(F)F)cc2[S+](C)[O-])c(O)c1=O (stereo not drawn) [Compound 1.029] | 5 (5=80-100% damage) | 5 (5=80-100% damage) | 5 (5=80-100% damage) | 5 (5=80-100% damage) | 5 (5=80-100% damage) | 5 (5=80-100% damage) | 5 (5=80-100% damage) | 5 (5=80-100% damage) | 5 (5=80-100% damage) | 5 (5=80-100% damage) | 5 (5=80-100% damage) | 5 (5=80-100% damage)

Reference: US9693556B2, “Herbicidal pyridazinone derivatives” (SYNGENTA LIMITED, priority 2011, dated 2017)
